# From PMC11979273, “A phase I study to evaluate the safety, tolerability, and pharmacokinetics of HEC113995PA·H2O, a novel dual-acting serotonergic antidepressant, in healthy subjects” (Frontiers in Pharmacology, 2025)
# Like-named read-outs stand apart in the source and are kept apart here.
# Key:
# [1] = Acid-base ionization constants; format: physicochemical
# [2] = Multiple ascending-dose study, safety (adverse events); format: in vivo
# Method: Three drug doses (10, 20 and 40 mg) were utilized. A total of 36 healthy subjects of both genders were assigned randomly to the three groups (n = 12), with10 subjects taking HEC113995PA·H2O tablets and 2 taking placebo. The participants in the 10 mg dose group received a single dose daily in the morning after overnight fasting, or a single dose daily after a standard meal in the 20 mg and 40 mg dose groups for 10 consecutive days. Serial blood samples were collected within 0.5 h before drug administration on days 7, 8 and 9, and before and after drug administration on days 1 and 10 to determine plasma concentration and pharmacokinetic characteristics. Safety and tolerability were evaluated on days 4, 8, 13 and 15.
# The trial was conducted in a dose-escalation manner, with the administration of the next dose arm only after the tolerability and safety of the previous arm had been fully evaluated. Following the assessments by both the investigator and the sponsor, the next dose level could be reverted to the previous dose group if deemed necessary. In such cases, twelve new healthy subjects (10 taking HEC113995PA·H2O tablets and 2 taking placebo) were enrolled to explore the maximum safe tolerated dose. Throughout the entire trial (including the SAD trial, FE trial and MAD trial), each subject was only allowed to participate in one dose group.
# Safety indicators were assessed through adverse events (AE), clinical laboratory tests (including blood routine, blood biochemistry, urine routine), vital signs monitoring (ear temperature), pulse, respiration and blood pressure in a sitting position), 12-lead electrocardiogram (ECG) and physical examinations. Adverse events (AE) and serious adverse events (SAE) were evaluated following the criteria outlined in National Cancer Institute Common Terminology Criteria for Adverse Events (NCI-CTCAE) version 5.0.
# Any adverse events that occurred in all subjects during the clinical trial were recorded with the following details: AE name, occurrence time, end time, severity, whether it was classified as a SAE, severity criteria (if applicable), treatment measures and outcomes, actions taken on investigational drug due to the AE, and the causal relationship between the AE and administrated drug, etc. Each AE was recorded separately.
# The subjects were under close monitoring at the clinical research center until the sample retention and safety evaluation were completed. During the safety trial, drug intolerance of a given dose was defined as follows: grade 2 or higher drug-related AEs occurred in more than half of the subjects, or grade 3 or higher drug-related AEs occurred in more than one quarter of the subjects. The dose escalation was halted after drug intolerance occurred.
# [3] = test system: rodent; test: In vivo rodent studies (comparison with Vilazodone, sedation); conditions: rodent behavioral despair models; unpublished data
compound,measurement,setting,value
Cc1nc(-c2cnc(N3CCN(CCCc4c[nH]c5ccc(C#N)cc45)CC3)nc2)sc1C(N)=O [HEC113995PA·H2O],pKa,[1]; read-out: acid-base ionization constant pKa1,6.46
same,pKa,[1]; read-out: acid-base ionization constant pKa2,7.37
same,related TEAE: diarrhea,[2]; MAD 10 mg,2 cases
same,related TEAE: dizziness,[2]; MAD 10 mg,1 case
same,related TEAE: elevated blood triglycerides,[2]; MAD 10 mg,2 cases
same,related TEAE: nausea,[2]; MAD 10 mg,1 case
same,Grade 2 related AE: elevated blood triglycerides,[2]; MAD 10 mg group,1 case
same,related TEAE: elevated gamma-glutamyl transferase (γ-GT),[2]; MAD 10 mg group,1 case
same,related TEAE: oral ulcer,[2]; MAD 10 mg group,2 cases
same,incidence of subjects experiencing TRAEs,"[2]; MAD 10 mg group, 7 subjects",70.0%
same,incidence of subjects experiencing TEAE,"[2]; MAD 10 mg group, 8 subjects",80.0%
same,related TEAE: diarrhea,[2]; MAD 20 mg,1 case
same,related TEAE: dizziness,[2]; MAD 20 mg,1 case
same,related TEAE: nausea,[2]; MAD 20 mg,3 cases
same,incidence of subjects experiencing TRAEs,"[2]; MAD 20 mg group, 6 subjects",66.7%
same,incidence of subjects experiencing TEAE,"[2]; MAD 20 mg group, 8 subjects",88.9%
same,related TEAE: dizziness,[2]; MAD 40 mg,4 cases
same,related TEAE: elevated blood triglycerides,[2]; MAD 40 mg,3 cases
same,related TEAE: nausea,[2]; MAD 40 mg,1 case
same,Grade 2 related AE: elevated blood cholesterol,[2]; MAD 40 mg group,1 case
same,Grade 2 related AE: elevated blood triglycerides,[2]; MAD 40 mg group,1 case
same,related TEAE: elevated gamma-glutamyl transferase (γ-GT),[2]; MAD 40 mg group,1 case
same,incidence of subjects experiencing TRAEs,"[2]; MAD 40 mg group, 6 subjects",60.0%
same,incidence of subjects experiencing TEAE,"[2]; MAD 40 mg group, 8 subjects",80.0%
same,Grade 3 or higher TEAEs related to the investigational product,[2]; MAD trial,no Grade 3 or higher TEAEs
same,related TEAE incidence: elevated gamma-glutamyl transferase (γ-GT),"[2]; MAD, 2/29",6.9%
same,related TEAE incidence: oral ulcer,"[2]; MAD, 2/29",6.9%
same,related TEAE incidence: hyperuricemia,"[2]; MAD, 2/29, both cases in the 40 mg group",6.9%
same,related TEAE incidence: diarrhea,"[2]; MAD, 3/29",10.3%
same,related TEAE incidence: dry mouth,"[2]; MAD, 3/29, all cases in the 10 mg group",10.3%
same,related TEAE incidence: headache,"[2]; MAD, 3/29, exclusively observed in the 20 mg group",10.3%
same,related TEAE incidence: terminal insomnia,"[2]; MAD, 3/29, limited to the 20 mg group",10.3%
same,related TEAE incidence: elevated blood triglycerides,"[2]; MAD, 5/29",17.2%
same,related TEAE incidence: nausea,"[2]; MAD, 5/29",17.2%
same,related TEAE incidence: dizziness,"[2]; MAD, 6/29",20.7%
same,incidence of Grade 2 AEs related to the investigational product,"[2]; MAD, HEC113995PA·H2O group, 3 cases",10.3%
same,incidence of subjects experiencing TRAEs,"[2]; MAD, HEC113995PA·H2O trial group, 19 subjects, 48 TRAEs",65.5%
same,incidence of subjects experiencing TEAE,"[2]; MAD, HEC113995PA·H2O trial group, 24 subjects, 85 incidents",82.8%
same,tolerability,"[2]; healthy Chinese subjects, multiple doses range 10–40 mg daily",well tolerated
same,efficacy relative to HEC61139 (Vilazodone),[3],more potent efficacy
